Where a SMILES comes first, the peptide text is derived from it.
Tests used:
Settings in all cases: 50:1 E:T
[1] = system: WT1+ allo APC with restricting HLA allele loaded with WT1 peptide; test: Cr51 release assay, cytotoxic CTL response vs peptide loaded allogeneic APC sharing restricting HLA allele (HLA restriction)
[2] = system: WT1 peptide loaded autologous APC; test: Cr51 release assay, cytotoxic CTL response vs peptide loaded autologous APC; format: cell-based, human
[3] = system: WT1- autologous APC; test: Cr51 release assay, cytotoxic CTL response vs unmodified autologous APC; format: cell-based, human
[4] = system: WT1- leukemia; test: Cr51 release assay, cytotoxic CTL response vs WT1- leukemia; format: cell-based, human
Description: (§1) Twenty-four primary leukemic cells and 1 leukemic cell line were characterized for their expression of WT1 by intracellular FACS staining using murine anti-human WT1 monoclonal antibodies (Neomarkers, Fremont, Calif.) as previously described (32,38) The WT1+ leukemias included blast cells from 11 primary AMLs, 3 primary ALLs and 1B-cell precursor ALL cell line. Ten WT1-leukemias, were used as controls, and included 3 B-cell precursor ALLs and 7 AMLs.

[5] = system: WT1- allo APC with restricting HLA allele; test: Cr51 release assay, cytotoxic CTL response vs unloaded allogeneic APC sharing restricting HLA allele; format: cell-based, human
[6] = system: WT1+ leukemia; test: Cr51 release assay, cytotoxic CTL response vs WT1+ leukemia expressing restricting HLA allele; format: cell-based, human
Description: as §1
PHA blasts were not available from every patient that provided leukemia blasts for this study.

Row | Structure (SMILES) | Cytotoxic CTL response, % vs WT1+ allo APC with restricting HLA allele loaded with WT1 peptide ([1]; HLA allele A0201) [%] | Cytotoxic CTL response, % vs WT1 peptide loaded autologous APC ([2]; HLA allele A0201) [%] | Cytotoxic CTL response, % vs WT1- autologous APC ([3]; HLA allele A0201) [%] | Cytotoxic CTL response, % vs WT1- leukemia ([4]; HLA allele A0201) [%] | Cytotoxic CTL response, % vs WT1- allo APC with restricting HLA allele ([5]; HLA allele A0201) [%] | Cytotoxic CTL response, % vs WT1+ leukemia ([6]; HLA allele A0201) [%] | Cytotoxic CTL response, % vs WT1+ allo APC with restricting HLA allele loaded with WT1 peptide ([1]; HLA allele A0101) [%] | Cytotoxic CTL response, % vs WT1 peptide loaded autologous APC ([2]; HLA allele A0101) [%] | Cytotoxic CTL response, % vs WT1- autologous APC ([3]; HLA allele A0101) [%] | Cytotoxic CTL response, % vs WT1- allo APC with restricting HLA allele ([5]; HLA allele A0101) [%] | further results
1 | CC(C)C[C@H](NC(=O)[C@H](C)NC(=O)[C@H](CC(N)=O)NC(=O)[C@H](CC(C)C)NC(=O)[C@H](CC(=O)O)NC(=O)[C@@H](N)CCCNC(=N)N)C(=O)N[C@@H](CC(C)C)C(=O)N1CCC[C@H]1C(=O)N[C@@H](C)C(=O)N[C@H](C(=O)O)C(C)C [SEQ ID NO: 152] (H-RDLNALLPAV-OH; N-terminus and C-terminus assumed) | 31 | 51 | 2 | 0 | 4 | 9 |  |  |  |  | Cytotoxic CTL response, % vs WT1+ allo APC with restricting HLA allele loaded with WT1 peptide ([1]; HLA allele B5701): 22%; Cytotoxic CTL response, % vs WT1 peptide loaded autologous APC ([2]; HLA allele B5701): 44%; Cytotoxic CTL response, % vs WT1- autologous APC ([3]; HLA allele B5701): 3%; Cytotoxic CTL response, % vs WT1- allo APC with restricting HLA allele ([5]; HLA allele B5701): 1%
2 | CC[C@H](C)[C@H](NC(=O)[C@H](C)N)C(=O)N[C@@H](CC(C)C)C(=O)N[C@@H](CC(=O)O)C(=O)N[C@@H](Cc1ccccc1)C(=O)N[C@@H](CC(C)C)C(=O)N[C@@H](CC(C)C)C(=O)N[C@@H](CC(C)C)C(=O)N[C@@H](CCC(N)=O)C(=O)O [SEQ ID NO: 147] (H-AILDFLLLQ-OH; N-terminus and C-terminus assumed) | 17 | 18 | 0 | 3 | 3 | 19 |  |  |  |  | 
3 | C[C@H](NC(=O)[C@H](CCC(N)=O)NC(=O)[C@H](CO)NC(=O)CNC(=O)[C@@H](NC(=O)[C@H](CS)NC(=O)[C@H](CO)NC(=O)[C@H](CC(=O)O)NC(=O)[C@@H](N)[C@@H](C)O)[C@@H](C)O)C(=O)O [SEQ ID NO: 168] (H-TDSCTGSQA-OH; N-terminus and C-terminus assumed) |  |  |  |  |  |  |  |  |  |  | Cytotoxic CTL response, % vs WT1+ allo APC with restricting HLA allele loaded with WT1 peptide ([1]; HLA allele B3802): 53%; Cytotoxic CTL response, % vs WT1+ allo APC with restricting HLA allele loaded with WT1 peptide ([1]; HLA allele B4402): 88%; Cytotoxic CTL response, % vs WT1 peptide loaded autologous APC ([2]; HLA allele B3802): 88%; Cytotoxic CTL response, % vs WT1 peptide loaded autologous APC ([2]; HLA allele B4402): 36%; Cytotoxic CTL response, % vs WT1- autologous APC ([3]; HLA allele B3802): 0%; Cytotoxic CTL response, % vs WT1- autologous APC ([3]; HLA allele B4402): 1%; Cytotoxic CTL response, % vs WT1- leukemia ([4]; HLA allele B4402): 1%; Cytotoxic CTL response, % vs WT1- allo APC with restricting HLA allele ([5]; HLA allele B3802): 1%; Cytotoxic CTL response, % vs WT1- allo APC with restricting HLA allele ([5]; HLA allele B4402): 0%; Cytotoxic CTL response, % vs WT1+ leukemia ([6]; HLA allele B4402): 56%
4 | C[C@@H](O)[C@H](NC(=O)[C@@H](NC(=O)[C@H](Cc1c[nH]cn1)NC(=O)[C@H](CC(N)=O)NC(=O)[C@H](CC(=O)O)NC(=O)[C@H](CO)NC(=O)[C@H](CCC(=O)O)NC(=O)[C@H](Cc1ccc(O)cc1)NC(=O)CN)[C@@H](C)O)C(=O)O [SEQ ID NO: 178] (H-GYESDNHTT-OH; N-terminus and C-terminus assumed) |  |  |  |  |  |  | 26 | 27 | 0 | 0 | Cytotoxic CTL response, % vs WT1+ allo APC with restricting HLA allele loaded with WT1 peptide ([1]; HLA allele B3501): 23%; Cytotoxic CTL response, % vs WT1 peptide loaded autologous APC ([2]; HLA allele B3501): 35%; Cytotoxic CTL response, % vs WT1- autologous APC ([3]; HLA allele B3501): 0%; Cytotoxic CTL response, % vs WT1- leukemia ([4]; HLA allele A0101): 0%; Cytotoxic CTL response, % vs WT1- allo APC with restricting HLA allele ([5]; HLA allele B3501): 0%; Cytotoxic CTL response, % vs WT1+ leukemia ([6]; HLA allele A0101): 33%
5 | CSCC[C@H](NC(=O)[C@H](CCC(N)=O)NC(=O)[C@H](CC(N)=O)NC(=O)[C@@H](N)Cc1c[nH]c2ccccc12)C(=O)N[C@@H](CC(N)=O)C(=O)N[C@@H](CC(C)C)C(=O)NCC(=O)N[C@@H](C)C(=O)N[C@H](C(=O)O)[C@@H](C)O [SEQ ID NO: 171] (H-WNQMNLGAT-OH; N-terminus and C-terminus assumed) | 21 | 18 | 0 | 1 | 0 | 19 | 19 | 26 | 0 | 3 | Cytotoxic CTL response, % vs WT1+ allo APC with restricting HLA allele loaded with WT1 peptide ([1]; HLA allele B3508): 21%; Cytotoxic CTL response, % vs WT1+ allo APC with restricting HLA allele loaded with WT1 peptide ([1]; HLA allele C1701): 7%; Cytotoxic CTL response, % vs WT1 peptide loaded autologous APC ([2]; HLA allele B3508): 18%; Cytotoxic CTL response, % vs WT1 peptide loaded autologous APC ([2]; HLA allele C1701): 10%; Cytotoxic CTL response, % vs WT1- autologous APC ([3]; HLA allele B3508): 0%; Cytotoxic CTL response, % vs WT1- autologous APC ([3]; HLA allele C1701): 0%; Cytotoxic CTL response, % vs WT1- leukemia ([4]; HLA allele B3508): 4%; Cytotoxic CTL response, % vs WT1- leukemia ([4]; HLA allele C1701): 1%; Cytotoxic CTL response, % vs WT1- allo APC with restricting HLA allele ([5]; HLA allele B3508): 2%; Cytotoxic CTL response, % vs WT1- allo APC with restricting HLA allele ([5]; HLA allele C1701): 0%; Cytotoxic CTL response, % vs WT1+ leukemia ([6]; HLA allele B3508): 19%; Cytotoxic CTL response, % vs WT1+ leukemia ([6]; HLA allele C1701): 16%
6 | CC(C)C[C@H](NC(=O)[C@H](CS)NC(=O)CNC(=O)[C@@H]1CCCN1)C(=O)N[C@@H](CCC(N)=O)C(=O)N[C@@H](CCC(N)=O)C(=O)N1CCC[C@H]1C(=O)N[C@@H](CCC(=O)O)C(=O)N[C@@H](CCC(N)=O)C(=O)O [SEQ ID NO: 148] (H-PGCLQQPEQ-OH; N-terminus and C-terminus assumed) | 27 | 54 | 6 | 5 | 7 | 19 |  |  |  |  | Cytotoxic CTL response, % vs WT1+ allo APC with restricting HLA allele loaded with WT1 peptide ([1]; HLA allele B4701): 25%; Cytotoxic CTL response, % vs WT1 peptide loaded autologous APC ([2]; HLA allele B4701): 54%; Cytotoxic CTL response, % vs WT1- autologous APC ([3]; HLA allele B4701): 6%; Cytotoxic CTL response, % vs WT1- allo APC with restricting HLA allele ([5]; HLA allele B4701): 1%
7 | C[C@H](NC(=O)[C@@H]1CCCN1)C(=O)N1CCC[C@H]1C(=O)N1CCC[C@H]1C(=O)N1CCC[C@H]1C(=O)N1CCC[C@H]1C(=O)N1CCC[C@H]1C(=O)N1CCC[C@H]1C(=O)N1CCC[C@H]1C(=O)O [SEQ ID NO: 158] (H-PAPPPPPPP-OH; N-terminus and C-terminus assumed) | 18 | 40 | 2 | 0 | 1 | 0 |  |  |  |  | 
8 | CSCC[C@H](NC(=O)[C@H](CCC(N)=O)NC(=O)[C@H](CC(N)=O)NC(=O)[C@@H](N)Cc1c[nH]c2ccccc12)C(=O)N[C@@H](CC(N)=O)C(=O)N[C@@H](CC(C)C)C(=O)NCC(=O)N[C@@H](C)C(=O)N[C@H](C(=O)N[C@@H](CC(C)C)C(=O)N[C@@H](CCCCN)C(=O)O)[C@@H](C)O [SEQ ID NO: 173] (H-WNQMNLGATLK-OH; N-terminus and C-terminus assumed) |  |  |  |  |  |  |  |  |  |  | Cytotoxic CTL response, % vs WT1+ allo APC with restricting HLA allele loaded with WT1 peptide ([1]; HLA allele DRB11104): 1%; Cytotoxic CTL response, % vs WT1 peptide loaded autologous APC ([2]; HLA allele DRB11104): 8%; Cytotoxic CTL response, % vs WT1- autologous APC ([3]; HLA allele DRB11104): 0%; Cytotoxic CTL response, % vs WT1- leukemia ([4]; HLA allele DRB11104): 0%; Cytotoxic CTL response, % vs WT1- allo APC with restricting HLA allele ([5]; HLA allele DRB11104): 2%; Cytotoxic CTL response, % vs WT1+ leukemia ([6]; HLA allele DRB11104): 0%
9 | CSCC[C@H](NC(=O)[C@H](CCC(N)=O)NC(=O)[C@@H](N)CC(N)=O)C(=O)N[C@@H](CC(N)=O)C(=O)N[C@@H](CC(C)C)C(=O)NCC(=O)N[C@@H](C)C(=O)N[C@H](C(=O)N[C@@H](CC(C)C)C(=O)O)[C@@H](C)O [SEQ ID NO: 172] (H-NQMNLGATL-OH; N-terminus and C-terminus assumed) |  |  |  |  |  |  |  |  |  |  | Cytotoxic CTL response, % vs WT1+ allo APC with restricting HLA allele loaded with WT1 peptide ([1]; HLA allele A2402): 2%; Cytotoxic CTL response, % vs WT1 peptide loaded autologous APC ([2]; HLA allele A2402): 9%; Cytotoxic CTL response, % vs WT1- autologous APC ([3]; HLA allele A2402): 4%; Cytotoxic CTL response, % vs WT1- leukemia ([4]; HLA allele A2402): 1%; Cytotoxic CTL response, % vs WT1- allo APC with restricting HLA allele ([5]; HLA allele A2402): 0%; Cytotoxic CTL response, % vs WT1+ leukemia ([6]; HLA allele A2402): 17%
10 | CC(C)C[C@H](NC(=O)[C@@H](NC(=O)[C@H](C)NC(=O)CNC(=O)[C@H](CC(C)C)NC(=O)[C@@H](N)CC(N)=O)[C@@H](C)O)C(=O)N[C@@H](CCCCN)C(=O)NCC(=O)N[C@H](C(=O)O)C(C)C [SEQ ID NO: 175] (H-NLGATLKGV-OH; N-terminus and C-terminus assumed) | 14 | 18 | 1 | 2 | 1 | 19 | 17 | 19 | 2 | 1 | 
11 | CC(C)C[C@H](NC(=O)[C@H](CC(C)C)NC(=O)[C@H](CC(C)C)NC(=O)[C@H](C)NC(=O)[C@H](CCC(N)=O)NC(=O)[C@H](CO)NC(=O)CNC(=O)[C@@H](NC(=O)[C@@H](N)CS)[C@@H](C)O)C(=O)O [SEQ ID NO: 167] (H-CTGSQALLL-OH; N-terminus and C-terminus assumed) |  |  |  |  |  |  | 26 | 21 | 0 | 0 | Cytotoxic CTL response, % vs WT1- leukemia ([4]; HLA allele A0101): 3%; Cytotoxic CTL response, % vs WT1+ leukemia ([6]; HLA allele A0101): 33%

— patent publication US10815274B2, “Immunogenic WT-1 peptides and methods of use thereof” (Memorial Sloan Kettering Cancer Center, priority 2012, dated 2020)
